Source: ChEMBL document CHEMBL4130480, “Serinolamides and Lyngbyabellins from an Okeania sp. Cyanobacterium Collected from the Red Sea” (J Nat Prod, 2017)
Activity calls are given as the source filed them. The rule behind the calls is not given here.

What was measured:
MCF7 = assay: Growth inhibition of human MCF7 cells after 72 hrs by MTT assay; assay type: functional; conditions: MCF7, 72 h
NCI-H460 = assay: Growth inhibition of human H460 cells after 72 hrs by MTT assay; assay type: functional; conditions: NCI-H460, 72 h
N2a = assay: Growth inhibition of mouse Neuro2a cells after 72 hrs by MTT assay; assay type: functional
Amphibalanus amphitrite = assay: Antifouling activity against cypris stage of Amphibalanus amphitrite larvae assessed as inhibition of larval settlement at < 1 ug/ml after 48 to 120 hrs by microscopic analysis; assay type: functional, organism-based

Row | Compound | GI50 (MCF7) [µM] | GI50 (NCI-H460) [µM] | GI50 (N2a) [µM] | inhibition (Amphibalanus amphitrite)
1 | COC(=O)c1csc([C@@H](OC(=O)[C@@H](C)[C@H](CCCC(C)(Cl)Cl)OC(=O)c2csc([C@H](O)CO)n2)C(C)(C)O)n1 | > 160 | – | – | –
2 | C[C@@H]1C(=O)O[C@@H](C(C)(C)O)c2nc(cs2)C(=O)OC[C@@H](O)c2nc(cs2)C(=O)O[C@H]1CCCC(C)(Cl)Cl | 120 | 2.2 | 4.8 | –
3 | CCCCCCCCCCCCC/C=C(\C)C(=O)N[C@H](COC)COC(C)=O | – | – | – | Active
4 | CCCCCCCCCCCCC/C=C(\C)C(=O)N[C@@H](CO)COC | – | – | – | Active
5 | CCCC(=O)N[C@@H](CC(C)C)[C@H](O)CC(=O)OC[C@@H](O)c1nc(C(=O)O[C@@H](CCCC(C)(Cl)Cl)[C@H](C)C(=O)O[C@H](c2nc(C(=O)OC)cs2)C(C)(C)O)cs1 | 9 | – | – | –
